Experimental data taken from PubChem BioAssay (NCI).
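Cultured in 96-well plates, cells were exposed to test compound for 48 hours across five concentrations. TGI: total growth inhibition.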

Legend:
Experiment in all cases: NCI anticancer screen, dose series, 48 h
[1] = system: UACC-62 melanoma
[2] = system: MDA-N
[3] = system: OVCAR-3 ovarian
[4] = system: TK-10 renal
[5] = system: SK-MEL-28 melanoma
[6] = system: HT29 colon
[7] = system: T-47D breast
[8] = system: SW-620 colon
[9] = system: NCI-H522 lung
[10] = system: ACHN renal
[11] = system: RPMI-8226 leukemia
[12] = system: HOP-62 NSCLC
[13] = system: MALME-3M melanoma
[14] = system: M14 melanoma
[15] = system: SN12C renal
[16] = system: OVCAR-5 ovarian
[17] = system: EKVX NSCLC
[18] = system: BT-549 breast
[19] = system: SF-295 CNS

Cc1ccc([N+](=O)[O-])cc1S(=O)(=O)Nc1ccc(C(=O)/C=C/c2ccccc2)cc1
TGI [1]: 28.1 µM | TGI [2]: 42.8 µM | TGI [3]: 30.7 µM | TGI [4]: > 100 µM | TGI [5]: 49.6 µM | TGI [6]: 57.6 µM | TGI [7]: 44.6 µM | TGI [8]: 59.4 µM | TGI [9]: 53 µM | TGI [10]: 28 µM | TGI [11]: 37.1 µM | TGI [12]: 34.5 µM | TGI [13]: 39.5 µM | TGI [14]: 43.1 µM | TGI [15]: 43.2 µM | TGI [16]: 54.7 µM | TGI [17]: 33.5 µM | TGI [18]: 33.7 µM | TGI [19]: 44.1 µM
